# Reference: ChEMBL document CHEMBL3792365, “Dioxol and dihydrodioxin analogs of 2- and 3-phenylacetonitriles as potent anti-cancer agents with nanomolar activity against a variety of human cancer cells” (2016)
# Tests used:
# Type in all cases: functional
# [1] = Growth inhibition of human Caki1 cells at 10 uM after 48 hrs by sulforhodamine B assay; conditions: CAKI-1, 48 h, values are per cent of control
# [2] = Growth inhibition of human UO31 cells at 10 uM after 48 hrs by sulforhodamine B assay; conditions: UO-31, 48 h, values are per cent of control
# [3] = Growth inhibition of human DU145 cells at 10 uM after 48 hrs by sulforhodamine B assay; conditions: DU-145, 48 h, values are per cent of control
# [4] = Growth inhibition of human UACC62 cells at 10 uM after 48 hrs by sulforhodamine B assay; conditions: UACC-62, 48 h, values are per cent of control
# NCI-H460 = test: Growth inhibition of human NCI-H460 cells at 10 uM after 48 hrs by sulforhodamine B assay; conditions: NCI-H460, 48 h, values are per cent of control
# M14 = test: Growth inhibition of human M14 cells at 10 uM after 48 hrs by sulforhodamine B assay; conditions: M14, 48 h, values are per cent of control
# SN12C = test: Growth inhibition of human SN12C cells at 10 uM after 48 hrs by sulforhodamine B assay; conditions: values are per cent of control
# A498 = test: Growth inhibition of human A498 cells at 10 uM after 48 hrs by sulforhodamine B assay; conditions: A498, 48 h, values are per cent of control
# [5] = Growth inhibition of human RXF393 cells at 10 uM after 48 hrs by sulforhodamine B assay; conditions: RXF 393, 48 h, values are per cent of control
# [6] = Growth inhibition of human OVCAR4 cells at 10 uM after 48 hrs by sulforhodamine B assay; conditions: OVCAR-4, 48 h, values are per cent of control
# [7] = Growth inhibition of human SF295 cells at 10 uM after 48 hrs by sulforhodamine B assay; conditions: SF-295, 48 h, values are per cent of control
# SK-MEL-28 = test: Growth inhibition of human SK-MEL-28 cells at 10 uM after 48 hrs by sulforhodamine B assay; conditions: SK-MEL-28, 48 h, values are per cent of control
# [8] = Growth inhibition of human HCT116 cells at 10 uM after 48 hrs by sulforhodamine B assay; conditions: HCT-116, 48 h, values are per cent of control
# [9] = Growth inhibition of human OVCAR5 cells at 10 uM after 48 hrs by sulforhodamine B assay; conditions: OVCAR-5, 48 h, values are per cent of control
# [10] = Growth inhibition of human IGROV1 cells at 10 uM after 48 hrs by sulforhodamine B assay; conditions: IGROV-1, 48 h, values are per cent of control
# NCI-H522 = test: Growth inhibition of human NCI-H522 cells at 10 uM after 48 hrs by sulforhodamine B assay; conditions: NCI-H522, 48 h, values are per cent of control
# [11] = Growth inhibition of human HCT15 cells at 10 uM after 48 hrs by sulforhodamine B assay; conditions: HCT-15, 48 h, values are per cent of control
# [12] = Growth inhibition of human TK10 cells at 10 uM after 48 hrs by sulforhodamine B assay; conditions: TK-10, 48 h, values are per cent of control
# 786-0 = test: Growth inhibition of human 786-0 cells at 10 uM after 48 hrs by sulforhodamine B assay; conditions: 786-0, 48 h, values are per cent of control
# [13] = Growth inhibition of human COLO205 cells at 10 uM after 48 hrs by sulforhodamine B assay; conditions: COLO 205, 48 h, values are per cent of control
# T47D = test: Growth inhibition of human T47D cells at 10 uM after 48 hrs by sulforhodamine B assay; conditions: values are per cent of control
# [14] = Growth inhibition of human NCI-ADR-RES cells at 10 uM after 48 hrs by sulforhodamine B assay; conditions: values are per cent of control
# K562 = test: Growth inhibition of human K562 cells at 10 uM after 48 hrs by sulforhodamine B assay; conditions: K562, 48 h, values are per cent of control
# HT-29 = test: Growth inhibition of human HT-29 cells at 10 uM after 48 hrs by sulforhodamine B assay; conditions: HT-29, 48 h, values are per cent of control
# [15] = Growth inhibition of human SW620 cells at 10 uM after 48 hrs by sulforhodamine B assay; conditions: SW-620, 48 h, values are per cent of control
# A549 = test: Growth inhibition of human A549/ATCC cells at 10 uM after 48 hrs by sulforhodamine B assay; conditions: A549, 48 h, values are per cent of control
# [16] = Growth inhibition of human SF268 cells at 10 uM after 48 hrs by sulforhodamine B assay; conditions: SF-268, 48 h, values are per cent of control
# [17] = Growth inhibition of human OVCAR8 cells at 10 uM after 48 hrs by sulforhodamine B assay; conditions: OVCAR-8, 48 h, values are per cent of control
# ACHN = test: Growth inhibition of human ACHN cells at 10 uM after 48 hrs by sulforhodamine B assay; conditions: values are per cent of control
# [18] = Growth inhibition of human SF539 cells at 10 uM after 48 hrs by sulforhodamine B assay; conditions: SF-539, 48 h, values are per cent of control
# SK-MEL-5 = test: Growth inhibition of human SK-MEL-5 cells at 10 uM after 48 hrs by sulforhodamine B assay; conditions: SK-MEL-5, 48 h, values are per cent of control
# SK-MEL-2 = test: Growth inhibition of human SK-MEL-2 cells at 10 uM after 48 hrs by sulforhodamine B assay; conditions: SK-MEL-2, 48 h, values are per cent of control
# [19] = Growth inhibition of human HCC2998 cells at 10 uM after 48 hrs by sulforhodamine B assay; conditions: HCC 2998, 48 h, values are per cent of control
# [20] = Growth inhibition of human LOXIMVI cells at 10 uM after 48 hrs by sulforhodamine B assay; conditions: LOX IMVI, values are per cent of control
# NCI-H322M = test: Growth inhibition of human NCI-H322M cells at 10 uM after 48 hrs by sulforhodamine B assay; conditions: values are per cent of control
# [21] = Growth inhibition of human SKOV3 cells at 10 uM after 48 hrs by sulforhodamine B assay; conditions: SK-OV-3, 48 h, values are per cent of control
# [22] = Growth inhibition of human SNB75 cells at 10 uM after 48 hrs by sulforhodamine B assay; conditions: SNB-75, 48 h, values are per cent of control
# [23] = Growth inhibition of human Hs 578T cells at 10 uM after 48 hrs by sulforhodamine B assay; conditions: values are per cent of control
# MDA-MB-231 = test: Growth inhibition of human MDA-MB-231 cells at 10 uM after 48 hrs by sulforhodamine B assay; conditions: MDA-MB-231, 48 h, values are per cent of control
# NCI-H23 = test: Growth inhibition of human NCI-H23 cells at 10 uM after 48 hrs by sulforhodamine B assay; conditions: NCI-H23, 48 h, values are per cent of control
Compound,"growth, % of control at 10 µM [1]","growth, % of control at 10 µM [2]","growth, % of control at 10 µM [3]","growth, % of control at 10 µM [4]","growth, % of control at 10 µM (NCI-H460)","growth, % of control at 10 µM (M14)","growth, % of control at 10 µM (SN12C)","growth, % of control at 10 µM (A498)","growth, % of control at 10 µM [5]","growth, % of control at 10 µM [6]","growth, % of control at 10 µM [7]","growth, % of control at 10 µM (SK-MEL-28)","growth, % of control at 10 µM [8]","growth, % of control at 10 µM [9]","growth, % of control at 10 µM [10]","growth, % of control at 10 µM (NCI-H522)","growth, % of control at 10 µM [11]","growth, % of control at 10 µM [12]","growth, % of control at 10 µM (786-0)","growth, % of control at 10 µM [13]",also measured
N#C/C(=C\c1ccc2c(c1)OCO2)c1ccc2c(c1)OCO2,66.8%,86.7%,92.5%,69.4%,83.6%,50.8%,90.7%,73.7%,94.7%,89.7%,76.5%,88.5%,57.5%,97.9%,66.1%,76.4%,43.9%,91%,90%,59.8%,"growth, % of control at 10 µM (T47D): 67.7%; growth, % of control at 10 µM [14]: 41%; growth, % of control at 10 µM (K562): 24.9%; growth, % of control at 10 µM (HT-29): 39.6%; growth, % of control at 10 µM [15]: 42.9%; growth, % of control at 10 µM (A549): 59.5%; growth, % of control at 10 µM [16]: 81.2%; growth, % of control at 10 µM [17]: 83.8%; growth, % of control at 10 µM (ACHN): 96.2%; growth, % of control at 10 µM [18]: 79.4%; growth, % of control at 10 µM (SK-MEL-5): 75.9%; growth, % of control at 10 µM (SK-MEL-2): 63.5%; growth, % of control at 10 µM [19]: 72.3%; growth, % of control at 10 µM [20]: 65.1%; growth, % of control at 10 µM (NCI-H322M): 106%; growth, % of control at 10 µM [21]: 85.5%; growth, % of control at 10 µM [22]: 94.3%; growth, % of control at 10 µM [23]: 89.7%; growth, % of control at 10 µM (MDA-MB-231): 66.8%; growth, % of control at 10 µM (NCI-H23): 83.2%"
N#C/C(=C\c1ccc2ccccc2n1)c1ccc2c(c1)OCO2,76%,72.8%,81.3%,86.8%,24.7%,90.3%,73%,54.1%,80%,45%,64%,88.6%,20.5%,81.1%,55.1%,58.8%,79.7%,45%,51.9%,104%,"growth, % of control at 10 µM (T47D): 69.4%; growth, % of control at 10 µM [14]: 64.3%; growth, % of control at 10 µM (K562): 70.3%; growth, % of control at 10 µM (HT-29): 71.9%; growth, % of control at 10 µM [15]: 89.9%; growth, % of control at 10 µM (A549): 56.8%; growth, % of control at 10 µM [16]: 62.5%; growth, % of control at 10 µM [17]: 60.8%; growth, % of control at 10 µM (ACHN): 41.4%; growth, % of control at 10 µM [18]: 69.6%; growth, % of control at 10 µM (SK-MEL-5): 95.3%; growth, % of control at 10 µM (SK-MEL-2): 87.1%; growth, % of control at 10 µM [19]: 95.1%; growth, % of control at 10 µM [20]: 59.5%; growth, % of control at 10 µM (NCI-H322M): 66.6%; growth, % of control at 10 µM [21]: 25.8%; growth, % of control at 10 µM [22]: 5.4%; growth, % of control at 10 µM [23]: 34.8%; growth, % of control at 10 µM (MDA-MB-231): 50.2%; growth, % of control at 10 µM (NCI-H23): 58.8%"
